Assay results as given in patent US20110118192A1, “METHODS AND COMPOSITIONS FOR TREATING T-CELL LEUKEMIA” (priority 2007, published 2011).
“Also recorded” adds a separate entry of the source.

Columns and labels:
CUTLL1 cells [1] = assay: Cell size (flow cytometry) and cell growth (MTT) assays in CUTLL1 cells; assay type: cell-based, human; details: CompE 100 nM for 4 days
Description: (§1) FIG. 2. PTEN loss and AKT activation induce GSI resistance in T-ALL. […] No protective effect was observed by expression of a control shRNA targeting the luciferase gene (shRNA LUC). Mean FSC-H values for GSI and vehicle only treatment controls are indicated. Bar graphs represent means +/− standard deviation of triplicate samples. P values were derived from Student's t-test.
(§2) Changes in cell size were monitored by flow cytometry after NOTCH1 inactivation by GSI treatment (CompE 100 nM) and upon lentiviral shRNA knock-down of NOTCH1. Cell growth ratios were determined by a colorimetric assay using the Cell Proliferation Kit I (MTT) (Roche) in cells treated with inhibitors or vehicle treated controls.

PTEN = assay: Real-time PCR analysis of PTEN transcript levels upon NOTCH1 inhibition by GSI; assay type: cell-based, human; details: GSI-sensitive/PTEN-positive cells (CUTLL1, HPB-ALL)
Excerpt: (§3) FIG. 3. NOTCH1 regulates PTEN expression, AKT signaling and glucose metabolism. (a) Real-time PCR analysis of PTEN transcript levels upon NOTCH1 inhibition by GSI in CUTLL1 and HPB-ALL relative to (DMSO) controls. GAPDH levels were used as reference control. (b) Western blot analysis of PTEN and p-AKT (Ser473) in GSI sensitive T-ALL cell lines treated with CompE. AKT and α-Tubulin are shown as loading controls. (c) Real-time PCR analysis of Hes1 and PTEN expression in mouse DN3 thymocytes cocultured with stromal cells (OP9) or stromal cells expressing the NOTCH1 ligand Delta-like-1 (OP9-DL1). Data are means +/− standard deviation of duplicate (day 1) and triplicate (day 2) experiments. […]
Total RNA from T-ALL cell lines was extracted with RNAqueous kit (Ambion) following the manufacturer's instructions. cDNA was generated with the ThermoScript RT-PCR system (Invitrogen) and analyzed by quantitative real-time PCR (SYBR Green RT-PCR Core Reagents kit and the 7300 Real-Time PCR System, both from Applied Biosystems). Similar procedures were used to analyze RNA from DN3 cells purified from OP9 cocultures: Trizol method (Invitrogen) for RNA isolation, Omniscript RT kit (Qiagen) for cDNA synthesis and QuantiTect SYBR Green PCR kit (Qiagen) and the Applied Biosystems Sequence Detection System 7000 for PCR. […]

HPB-ALL cells = assay: Glucose uptake and oxidation in HPB-ALL cells; assay type: cell-based, human; details: CompE 100 nM for 96 hours
Excerpt: as §3, with “experiments. (d) Glucose uptake analysis in HPB-ALL and P12ICHIKAWA T-ALL cell lines in basal conditions (vehicle treatment only). (e) Glucose oxidation analysis in HPB-ALL and P12-ICHIKAWA T-ALL cell lines in basal conditions (vehicle treatment only).” for “experiments.”
(§4) Glucose uptake and oxidation were analyzed in T-ALL cells treated with GSI (CompE 100 nM for 96 hours) or vehicle only (DMSO) controls. […] For glucose uptake, cells were incubated with 0.1 mM (2 μCi/ml) 2-[3H]-deoxy-glucose, then washed in cold PBS and solubilized in 0.1% SDS and analyzed by scintillation counting. […] Glucose oxidation was measured as the amount of ^14CO2 captured in glass fiber filters previously soaked in 5% KOH. […]

NOTCH1 processing = assay: Western blot analysis of activated NOTCH1 (NOTCH1IC) in GSI-sensitive and GSI-resistant T-ALL cell lines; assay type: cell-based, human; details: Comp E 100 nM, 24 hours
Description: FIG. 7. CompE treatment effectively blocks NOTCH1 processing in GSI-sensitive and resistant T-ALL cells. Western blot analysis of activated NOTCH1 (NOTCH1IC) levels in GSI-sensitive and resistant cell lines after 24 hours treatment with Comp E (100 nM). α-Tubulin levels are shown as loading control. Lower molecular weight bands correspond to activated NOTCH1 protein in cell lines harboring mutations that result in C-terminal truncations of the PEST domain (NOTCH 1IC-ΔPEST).
(§5) Antibodies against activated NOTCH1 (Val1744, Cell Signaling); PTEN (clone 6H2.1, Cascade Biosciences), phospho-AKT (Ser473), AKT (Cell Signaling), LC3, and α-tubulin (TU-02, Santa Cruz Biotechnology) were used according to standard procedures. PTEN immunostaining of formalin-fixed paraffin-embedded tissue sections was performed after heat-induced epitope retrieval in a microwave in citrate buffer (pH6.0). PTEN antibody (Zymed) was used at a 1:50 dilution. Slides were incubated at room temperature overnight before antigen detection using a Ventana automated staining platform (Ventana) and diaminobenzidine (DAB) detection.

P12ICHIKAWA cells = assay: Glucose uptake and oxidation in P12-ICHIKAWA cells; assay type: cell-based, human; details: CompE 100 nM for 96 hours
Excerpt: as §3, with “experiments. (d) Glucose uptake analysis in HPB-ALL and P12ICHIKAWA T-ALL cell lines in basal conditions (vehicle treatment only). (e) Glucose oxidation analysis in HPB-ALL and P12-ICHIKAWA T-ALL cell lines in basal conditions (vehicle treatment only).” for “experiments.”
as §4

DELTEX1 = assay: Quantitative RT-PCR analysis of DELTEX1 expression in GSI-sensitive and resistant T-ALL cell lines; assay type: cell-based, human; details: Comp E 100 nM, 24 hours
Description: FIG. 8. CompE treatment effectively down regulates the expression of DELTEX1 in GSI-sensitive and resistant T-ALL cells. (a and b) Quantitative RT-PCR analysis of DELTEX1 expression in GSI-sensitive and resistant cell lines after 24 hours of treatment with Comp E (100 nM). Relative expression levels were calculated by the ΔΔCt method using GAPDH as a reference control. Data are means +/− standard deviation.
Total RNA from T-ALL cell lines was extracted with RNAqueous kit (Ambion) following the manufacturer's instructions. cDNA was generated with the ThermoScript RT-PCR system (Invitrogen) and analyzed by quantitative real-time PCR (SYBR Green RT-PCR Core Reagents kit and the 7300 Real-Time PCR System, both from Applied Biosystems). Similar procedures were used to analyze RNA from DN3 cells purified from OP9 cocultures: Trizol method (Invitrogen) for RNA isolation, Omniscript RT kit (Qiagen) for cDNA synthesis and QuantiTect SYBR Green PCR kit (Qiagen) and the Applied Biosystems Sequence Detection System 7000 for PCR. Relative expression levels were based on GAPDH and β-actin as reference controls.

p-AKT (Ser473) = assay: Western blot analysis of PTEN and p-AKT (Ser473) in GSI sensitive T-ALL cell lines; assay type: cell-based, human; details: GSI-sensitive/PTEN-positive T-ALL cell lines
Excerpt: as §3, with “experiments. (d) Glucose uptake analysis in HPB-ALL and P12ICHIKAWA T-ALL cell lines in basal conditions (vehicle treatment only). (e) Glucose oxidation analysis in HPB-ALL and P12-ICHIKAWA T-ALL cell lines in basal conditions (vehicle treatment only). (f) Effects of GSI treatment in glucose uptake in HPB-ALL and P12-ICHIKAWA T-ALL cells. (g) Effects of GSI treatment in glucose oxidation in HPB-ALL and P12-ICHIKAWA T-ALL cells. Data shown in (d) and (f) are means +/− standard deviation of triplicates. Data shown in (e) and (g) are means +/− standard deviation of duplicates. P values in (a) and (c)-(g) were derived from Student's t-test.” for “experiments.”

CUTLL1 cells [2] = assay: Autophagy analysis (electron microscopy, LC3 Western blot) in CUTLL1 cells; assay type: cell-based, human
Description: FIG. 11. […] (a, b) Transmission electron microscopy analysis of an early pass culture of CUTLL1 cells treated with vehicle control (DMSO) or GSI ([…] CompE) for 6 days. White arrow heads indicate phagosomes. Black arrowheads indicate mitochondria. (c) Quantitation of double membrane structures excluding mitochondria in control (DMSO) and GSI (CompE)-treated cells. Horizontal lines indicate the median. P values were derived from the Wilcoxon rank sum test. (d) Western blot analysis of the phagosome-associated LC3 protein in CUTLL1 cells treated with DMSO or CompE for 48 hours.
as §5
Electron microscopy. […] Double membrane structures, excluding mitochondria, were counted in sample preparations of an early-pass culture of CUTLL1 cells treated with DMSO or CompE (500 nM) for 6 days.

DND41 cells = assay: Cell size (flow cytometry) and cell growth (MTT) assays in DND41 cells; assay type: cell-based, human; details: CompE 100 nM for 4 days
Description: as §1, §2

[3] = test system: Drosophila ey-Gal4>DI flies; assay: Drosophila DAPT treatments of flies overexpressing Delta (ey-Gal4>DI); assay type: in vivo
Excerpt: FIG. 16. Inhibition of NOTCH signaling with GSI can suppress overgrowth caused by overexpression of Delta in vivo. (a) Quantification of NOTCH-like eye growth phenotypes associated with treatment with the presenilin/γ-secretase inhibitor DAPT in flies that overexpressed the NOTCH ligand Delta, during the proliferation phase of eye development. Genotype is ey-Gal4 UAS-DI (hereafter, ey-Gal4>DI). (b) Quantification of other NOTCH-like wing phenotypes (loss of wing margin and small wing size) in the ey-Gal4>DI treated animals. For each of the DAPT concentrations shown, the number of eyes and wings quantified were: n=215 (0 mM of DAPT), n=202 (0.25 mM), n=455 (0.5 mM) and n=318 (1 mM). Representative data from two independent experiments are shown.
Drosophila DAPT treatments. The γ-secretase inhibitor DAPT prevents NOTCH processing, translocation and signaling in cell culture and induces developmental defects in Drosophila similar to those caused by genetic reduction of NOTCH signaling. Stock solutions of the compound in ethanol were added to 2.5 ml of distilled water and dried potato food were prepared. Flies carrying a Delta transgene (UAS-DI) and the eye-specific Gal4 driver, ey-Gal4 (hereafter, ey-Gal4>DI) were kept on standard fly food at 26° C. for 3 days (72 hours) and the progeny were collected and transferred to the vials containing the food mixed with DAPT and allowed to progress through development in the presence of DAPT until closure.

[4] = non-lethal doses (1 mM) in food

Compound | cell growth (CUTLL1 cells [1]) | cell size (FSC-H) (CUTLL1 cells [1]) | PTEN expression (transcript levels) (PTEN) | glucose oxidation (HPB-ALL cells) | glucose uptake (HPB-ALL cells) | NOTCH1 processing (activated NOTCH1, NOTCH1IC levels) (NOTCH1 processing) | glucose oxidation (P12ICHIKAWA cells) | glucose uptake (P12ICHIKAWA cells) | NOTCH1 signaling (DELTEX1 expression) (DELTEX1) | AKT Ser473 phosphorylation (p-AKT (Ser473)) | autophagy (transmission electron microscopy, double membrane structures) (CUTLL1 cells [2]; 500 nM CompE for 6 days) | phagosome-associated LC3 protein (Western blot) (CUTLL1 cells [2]; CompE for 48 hours) | cell growth (DND41 cells) | cell size (DND41 cells) | eye growth induced by Delta overexpression ([3]; ey-Gal4>DI flies, DAPT in food) | wing phenotype ([3]; ey-Gal4>DI flies, DAPT in food) | Delta-induced eye overgrowth [3, 4] | eye and wing size [3, 4]
C[C@H](NC(=O)Cc1cc(F)cc(F)c1)C(=O)N[C@H]1N=C(c2ccccc2)c2ccccc2N(C)C1=O [CompE, (2S)-2-{[(3,5-Difluorophenyl)acetyl]amino}-N-[(3S)1-methyl-2-oxo-5-phenyl-2,3-dihydro-1H-1,4-benzodiazepin-3-yl]propanamide] | decreased cell growth | Decreased cell size | significant upregulation of PTEN expression | significant reductions | significant reductions | effectively block NOTCH1 processing in all cell lines; also recorded: showed NOTCH1 inhibition | not affected | not affected | effectively blocks NOTCH1 signaling and downregulates the expression of genes directly regulated by NOTCH1 | decreased Ser473 phosphorylation on AKT | induces autophagy | induced the LC3-II isoform | reduced cell growth | cell size defects | – | – | – | –
C[C@H](NC(=O)Cc1cc(F)cc(F)c1)C(=O)N[C@H](C(=O)OC(C)(C)C)c1ccccc1 [DAPT, N-[N-(3,5-difluorophenacetyl)-L-alanyl]-Sphenylglycine-t-butylester] | – | – | – | – | – | – | – | – | – | – | – | – | – | – | suppression of eye overgrowth; also recorded: prevented eye growth induced by Delta overexpression | wing defects equivalent to a genetic reduction of NOTCH activity | inhibits Delta-induced overgrowth | eyes and wings smaller than wild type
